# Assay results taken from PMC10794370, “Impact of plastic-related compounds on the gene expression signature of HepG2 cells transfected with CYP3A4” (Archives of Toxicology, 2023).
# “Also recorded” adds a separate entry of the source. Read-outs that look alike come from different tables or passages of the source.
# Assays:
# Type in all cases: cell-based
# [1] = Cytotoxicity (resazurin) growth inhibition assay; conditions: human
# Procedure: The cytotoxicity of six compounds selected from in-silico screening was analyzed through a resazurin assay. Aliquots of 10^4 CYP3A4-overexpressing HepG2 cells were seeded per well into 96-well plates. Cells were treated with different concentrations of the selected compounds ranging from 0.003 to 100 µM in a total volume of 200 µL for 72 h. Then, 20 µL/well of resazurin 0.01% w/v (Sigma Aldrich, Taufkirchen, Germany) was added. The fluorescence intensity was measured with the Infinite M200 Pro-plate reader (Tecan, Crailsheim, Germany). Dose–response curves were generated from three independent experiments for each compound and 50% inhibition concentrations (IC50) were calculated. The analysis was represented using Prism 6 GraphPad Software (La Jolla, CA, USA).
# [2] = system: CYP3A4-overexpressing HepG2 cells; test: RNA-sequencing and gene set enrichment analysis; conditions: IC50 concentration, 24 h; for number of 'DNA-templated DNA replication' genes influenced by only one compound: Venn diagram; for activated pathway (gene set enrichment, GO Biological Process) / number of genes targeted in 'DNA-templated DNA replication' pathway / suppressed pathway (gene set enrichment, GO Biological Process) / number of genes affected in 'nuclear chromosome segregation' pathway / number of genes involved in 'inflammatory response' pathway: vs DMSO control
# Procedure: Aliquots of 5 × 10^5 CYP3A4-overexpressing HepG2 cells were seeded into six-well-plates 24 h before treatment. Cells were treated with previously calculated IC50 concentrations of the compounds of interest. Control (ctrl) cells were treated with 0.2% DMSO. After 24 h incubation, the cells were harvested. RNA extraction was performed with the […] RNA Mini Kit (Invitek Molecular GmbH, Berlin, Germany), according to the manufacturer's instruction. Briefly, the cell pellet was lysed with 350 μL Lysis Solution and treated with β-mercaptoethanol. […] After several washing steps, RNA was eluted with 60 μL of Elution Buffer R and the concentration and purity measured with NanoDrop. Next-generation sequencing was conducted by […] GmbH, Mainz, Germany. The quality of the extracted RNA was verified by the company with a 2100 Bioanalyzer system (Agilent Technologies, CA, USA). After mRNA isolation and library preparation using the NEBNext^© UltraTM II Directional RNA Library Prep Kit (New England Biolabs, MA, USA), RNA sequencing of around 25 mio PE reads (2 × 12.5 M reads, 2 × 150 nt) was performed with the Illumina NextSeq 2000TM system. Each treatment and control group included two replicates. Quality control on the sequencing data was performed with the FastQC tool (0.12.0, https://www.bioinformatics.babraham.ac.uk/projects/fastqc/). Transcript abundance estimates were computed with Salmon (version 1.5.0) (Patro et al. [2017]) with a transcriptome index generated from the GENCODE (version 38), and subsequently summarized to gene level with the […] package (version 1.16.0) (Love et al. [2020]). The exploration, modelling, and interpretation of the expression data followed previously described protocols (Ludt et al. [2022]). Exploratory data analysis was executed with the pcaExplorer package (version 2.24.0) (Marini and Binder [2019]). Differential expression analysis was performed with DESeq2 package (version 1.38.3) (Love et al. [2014]), setting the false discovery rate (FDR) cutoff to 0.05. Accurate estimation of the effect sizes (described as log2 fold change) was finalized using the […] shrinkage estimator (version 1.20.0) (Zitovsky and Love [2020]). Subsequent analyses included Gene Ontology pathway enrichment by topGO (version 2.50.0) (Alexa et al. [2006])-using all expressed genes as background dataset and the ideal package (version 1.22.0) (Ludt et al. [2022])-and by clusterProfiler (version 4.6.0) (Wu et al. [2021]) with default settings using the log fold change as input. […] [2021]). Gene expression profiles were plotted as heatmaps (color-coded standardized Z scores for the expression values, after variance stabilizing transformation) to simplify comparison across samples.
# [3] = system: CYP3A4-overexpressing HepG2 cells; test: Flow cytometric cell cycle analysis; conditions: IC50 concentration, 24 h; for S-phase cells population: control 12.47 ± 0.83%; for cells in G2/M phase: control 18.70 ± 0.69%
# Procedure: After 24 h of incubation, cells were fixed with ethanol and stored at −20 °C overnight. […] The measurement was performed using a BD LSRFortessa™ Cell Analyzer (Becton–Dickinson, Heidelberg, Germany). The results were analyzed using FlowJo software (Celeza, Olten, Switzerland).
# [4] = CYP3A4-overexpressing HepG2 cells, 72 h, resazurin, mean ± SD of three independent experiments, read-out: IC50
# [5] = 72 h, resazurin, mean ± SD of three independent experiments, read-out: IC50
SMILES,"IC50 at 72 h [1, 4] [µM]",number of 'DNA-templated DNA replication' genes influenced by only one compound [2] [genes],"activated pathway (gene set enrichment, GO Biological Process) [2]",number of genes targeted in 'DNA-templated DNA replication' pathway [2] [genes],"suppressed pathway (gene set enrichment, GO Biological Process) [2]",S-phase cells population [3] [%],cells in G2/M phase [3] [%],number of genes affected in 'nuclear chromosome segregation' pathway [2] [genes],number of genes involved in 'inflammatory response' pathway [2] [genes],IC50 at 72 h [1] [µM],"IC50 at 72 h [1, 5] [µM]"
"CC(c1cc(C(C)(C)C)cc(C(C)(C)C)c1O)c1cc(C(C)(C)C)cc(C(C)(C)C)c1O [compound 5, 1,1-bis(3,5-di-tert-butyl-2-hydroxyphenyl)ethane]",20 ± 1.68,8,autophagy; also recorded: process utilizing autophagic mechanism; also recorded: response to endoplasmic reticulum stress; also recorded: cytokine production; also recorded: Golgi vesicle transport; also recorded: response to growth factors; also recorded: cellular response to growth factor stimulation,68,cholesterol metabolic process; also recorded: cholesterol biosynthetic process; also recorded: secondary alcohol biosynthetic process; also recorded: sterol metabolic process; also recorded: alcohol metabolic process; also recorded: small molecule metabolic process; also recorded: organic hydroxy compound metabolic process,10.88 ± 3.84,25.13 ± 2.25,,,,
"CC(C)(C)CC(C)(C)c1ccc(O)c(-n2nc3ccccc3n2)c1 [compound 3, octrizole]",63.8 ± 2.21,,,,,,,,,,
"Cc1cc(Cc2cc(C)cc(C3CCCCC3)c2O)c(O)c(C2CCCCC2)c1 [compound 6, 2,2′-methylene bis(6-cyclohexyl-4-methylphenol)]",18 ± 1.21,5,response to nutrients levels; also recorded: regulation of extent of growth; also recorded: response to wounding; also recorded: inflammatory response; also recorded: cytokine production,72,regulation of chromosome segregation; also recorded: regulation of mitotic sister chromatid separation; also recorded: nuclear chromosome segregation; also recorded: chromosome organization,7.06 ± 5.94,25.77 ± 0.95,83,90,,
"Cc1cc(Cc2cc(C)cc(C(C)(C)C)c2O)c(O)c(C(C)(C)C)c1 [compound 4, 2,2′-methylene bis(6-tert-butyl-4-methylphenol)]",,10,icosanoid metabolic process; also recorded: anion transport; also recorded: response to metal ions; also recorded: regulation of growth; also recorded: response to cytokines; also recorded: inflammatory response,78,regulation of chromosome segregation; also recorded: regulation of mitotic sister chromatid separation; also recorded: nuclear chromosome segregation; also recorded: chromosome organization; also recorded: metaphase/anaphase transition of mitotic cell cycle; also recorded: response to vitamin,6.26 ± 1.31,26.70 ± 8.40,103,76,17.4,
"O=C(OC1CCCCC1)c1ccccc1C(=O)OC1CCCCC1 [compound 1, dicyclohexyl phthalate]",,,,,,,,,,,72.7
"CC(C)COC(=O)c1ccccc1C(=O)OCC(C)C [compound 2, diisobutyl phthalate]",,,,,,,,,,,> 100
